# From ChEMBL document CHEMBL1201862, “PubChem BioAssay data set” (2004)
#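 Assay format: 96-well plates, 48-hour exposure. GI50 = concentration required for 50% inhibition of growth.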 The source made the active and inactive calls. No stated cut-off is given here; in the data, active = GI50 up to about 1.1 µM and inactive = higher.
# Legend:
# Assay in all cases: inhibition of tumour cell growth, NCI panel, 48 h
# SNB-19 = system: SNB-19
# Malme-3M = system: Malme-3M
# A498 = system: A498
# NCI-H522 = system: NCI-H522
# OVCAR-5 = system: OVCAR-5
# SR = system: SR
# U-251 = system: U-251
# ACHN = system: ACHN
# HOP-92 = system: HOP-92
# CCRF-CEM = system: CCRF-CEM
# NCI-H226 = system: NCI-H226
# SK-OV-3 = system: SK-OV-3
# SK-MEL-5 = system: SK-MEL-5
# SN12C = system: SN12C
# NCI-H23 = system: NCI-H23
# HL-60 = system: HL-60
# HCT-15 = system: HCT-15
# NCI-H460 = system: NCI-H460
# SF-295 = system: SF-295
# HCC 2998 = system: HCC 2998
SMILES,GI50 (SNB-19),GI50 (Malme-3M),GI50 (A498),GI50 (NCI-H522),GI50 (OVCAR-5),GI50 (SR),GI50 (U-251),GI50 (ACHN),GI50 (HOP-92),GI50 (CCRF-CEM),GI50 (NCI-H226),GI50 (SK-OV-3),GI50 (SK-MEL-5),GI50 (SN12C),GI50 (NCI-H23),GI50 (HL-60),GI50 (HCT-15) [µM],GI50 (NCI-H460),GI50 (SF-295),GI50 (HCC 2998)
C1CN2CCNCCN(CCN1)CC2,> 100 µM (inactive),> 100 µM (inactive),> 100 µM (inactive),> 100 µM (inactive),> 100 µM (inactive),> 100 µM (inactive),> 100 µM (inactive),> 100 µM (inactive),> 100 µM (inactive),3.9 µM (inactive),> 100 µM (inactive),> 100 µM (inactive),> 100 µM (inactive),> 100 µM (inactive),> 100 µM (inactive),20.9 µM (inactive),> 100,> 100 µM (inactive),> 100 µM (inactive),–
Cc1nn2c(N)cc(=O)nc2nc1/C=C/c1ccc(N(C)C)cc1,29.9 µM (inactive),5.2 µM (inactive),–,1.66 µM (inactive),17.5 µM (inactive),> 100 µM (inactive),> 22.1 µM (inactive),18 µM (inactive),–,< 0.01 µM (active),> 66.5 µM (inactive),> 100 µM (inactive),20.6 µM (inactive),> 65.6 µM (inactive),10.4 µM (inactive),< 0.01 µM (active),–,6.89 µM (inactive),> 79.3 µM (inactive),3.18 µM (inactive)
Nc1nc(N)c2c3c(cnc2n1)CC(c1ccccc1)CC3 (stereo not drawn),13.6 µM (inactive),31.5 µM (inactive),24.8 µM (inactive),14.4 µM (inactive),14.3 µM (inactive),10.6 µM (inactive),10.7 µM (inactive),5 µM (inactive),–,–,93.1 µM (inactive),21.5 µM (inactive),1.01 µM (active),17.3 µM (inactive),–,6.43 µM (inactive),4.04,3.66 µM (inactive),10.1 µM (inactive),34 µM (inactive)
CC(=O)OCCOCn1c2c(c(=S)[nH]c1=O)CCC2,> 100 µM (inactive),> 100 µM (inactive),–,> 100 µM (inactive),> 100 µM (inactive),> 100 µM (inactive),> 100 µM (inactive),> 100 µM (inactive),> 100 µM (inactive),> 100 µM (inactive),> 100 µM (inactive),–,> 100 µM (inactive),> 100 µM (inactive),> 100 µM (inactive),> 100 µM (inactive),> 100,–,> 100 µM (inactive),> 100 µM (inactive)
N#CCCN(C(=O)Nc1ccc(NC(=O)N(CCC#N)c2ccccc2)cc1)c1ccccc1,> 100 µM (inactive),> 100 µM (inactive),> 100 µM (inactive),> 100 µM (inactive),> 100 µM (inactive),> 100 µM (inactive),> 100 µM (inactive),> 100 µM (inactive),–,–,> 100 µM (inactive),> 100 µM (inactive),> 100 µM (inactive),> 100 µM (inactive),> 100 µM (inactive),> 100 µM (inactive),> 100,> 100 µM (inactive),> 100 µM (inactive),> 100 µM (inactive)
COc1cc(C2c3cc4c(cc3[C@@H](Nc3ccccc3)C3CO[C@@H](OC)[C@H]23)OCO4)cc(OC)c1O (stereo partly drawn),6.07 µM (inactive),–,–,6.58 µM (inactive),6.07 µM (inactive),1.95 µM (inactive),5.55 µM (inactive),3.18 µM (inactive),–,2.76 µM (inactive),–,9.06 µM (inactive),8.55 µM (inactive),7.36 µM (inactive),–,2.87 µM (inactive),3.61,1.11 µM (active),3.46 µM (inactive),6.9 µM (inactive)
COC(=O)c1ccc2[nH]c3c(c2c1)CC(=O)Nc1ccccc1-3,> 100 µM (inactive),> 100 µM (inactive),> 100 µM (inactive),> 100 µM (inactive),60.3 µM (inactive),7.28 µM (inactive),6.68 µM (inactive),> 100 µM (inactive),–,–,7.31 µM (inactive),41.7 µM (inactive),> 100 µM (inactive),> 100 µM (inactive),–,–,> 100,> 100 µM (inactive),> 100 µM (inactive),> 100 µM (inactive)
CCOC(=O)Cc1ccc(Nc2nc3ccccc3nc2C(=O)OCC)cc1,11.2 µM (inactive),52.1 µM (inactive),20.7 µM (inactive),89.9 µM (inactive),> 100 µM (inactive),> 100 µM (inactive),51.3 µM (inactive),53.5 µM (inactive),43.8 µM (inactive),> 100 µM (inactive),4.8 µM (inactive),54.1 µM (inactive),46.1 µM (inactive),> 100 µM (inactive),47.5 µM (inactive),> 100 µM (inactive),> 100,44.6 µM (inactive),32.9 µM (inactive),–
